Laboratory results published in patent publication US20230123334A1, “AMINO LIPID COMPOUND, PREPARATION METHOD THEREFOR, AND APPLICATION THEREOF” (SHENZHEN SHENXIN BIOTECHNOLOGY CO., LTD., priority 2020, published 2023).

test system: HEK293 cells; test: Preliminary screening as DNA vectors, GFP transfection of HEK293 cells; assay type: cell-based; conditions: amino lipid/DOPE liposome with 75 ng plasmid DNA (psin-EGFP-IRES-Puro); number of GFP-expressing cells divided by total nuclei (Hoechst)
Outline: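 Lipid + DOPE liposomes (NaOAc, pH 5.6) complexed w/ 75 ng psin-EGFP-IRES-Puro, 30 min RT; added to 3-5×10^4 HEK293/well, 37° C. Hoechst 0.2 μg/mL at 20-24 h, imaged after further 20-24 h. Efficiency = GFP+ cells / total nuclei.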

Structure (SMILES) | Absolute DNA transfection efficiency in HEK293 cells
CCCCCCCCCCCCCCCCCCSc1nc(NCCCCCCCCCCC)nc(NCCN2CCCCC2)n1 [S18N11 D4] | 10.1%
CCCCCCCCCCCCCCCCNc1nc(NCCN(CC)CC)nc(SCCCCCCCCCCCCCCCC)n1 [S16N16 D7] | 0.2%
CCCCCCCCCCCCCCCSc1nc(NCCCCCCCCCCCC)nc(NCCN2CCN(C)CC2)n1 [S15N12 D5] | 5.7%
CCCCCCCCCCCCCCCCCCSc1nc(NCCCCCCCCC)nc(NCCN(CC)CC)n1 [S18N9 D7] | 6.7%
CCCCCCCCCCCCCCCCCCSc1nc(NCCCCCCCC)nc(NCCN2CCOCC2)n1 [S18N8 D2] | 3.8%
CCCCCCCCCCCCCCCCCCSc1nc(NCCCCCCCCC)nc(NCCCN2CCOCC2)n1 [S18N9 D8] | 3.0%
CCCCCCCCCCCSc1nc(NCCCCCCCCC)nc(NCCCN2CCN(C)CC2)n1 [S11N9 D9] | 22.4%
CCCCCCCCCCCNc1nc(NCCN(C)C)nc(SCCCCCCCCCCC)n1 [S11N11 D1] | 17.8%
CCCCCCCCCCCSc1nc(NCCCCCCC)nc(NCCN2CCN(C)CC2)n1 [S11N7 D5] | 22.8%
CCCCCCCCCCCCCCCCSc1nc(NCCCN2CCN(C)CC2)nc(SCCCCCCC)n1 [S7S16 D9] | 2.3%
CCCCCCCCCCCCCCCCCCSc1nc(NCCCCCCCCCCC)nc(NCCN(CC)CC)n1 [S18N11 D7] | 2.7%
CCCCCCCCCCCCSc1nc(NCCCCCCCCC)nc(NCCN(CC)CC)n1 [S12N9 D7] | 0.8%
CCCCCCCCCCCSc1nc(NCCN2CCCCC2)nc(SCCCCCC)n1 [S6S11 D4] | 6.2%
CCCCCCCCCCCCCCCCNc1nc(NCCN(CC)CC)nc(SCCCCCCCCCCCC)n1 [S12N16 D7] | 3.6%
CCCCCCCCCCCCCCCCSc1nc(NCCCCCCCC)nc(NCCN2CCN(C)CC2)n1 [S16N8 D5] | 6.7%
CCCCCCCNc1nc(NCCN2CCCC2)nc(SCCCCCC)n1 [S6N7 D3] | 0.0%
CCCCCCCCCCCCCCCSc1nc(NCCCCCCCCC)nc(NCCN2CCOCC2)n1 [S15N9 D2] | 9.7%
CCCCCCCCCCCCCNc1nc(NCCN2CCCC2)nc(SCCCCCCC)n1 [S7N13 D3] | 17.9%
CCCCCCCCCSc1nc(NCCN2CCN(C)CC2)nc(SCCCCCCCC)n1 [S8S9 D5] | 5.8%
CCCCCCCCCCCCCCCCCCSc1nc(NCCCCCC)nc(NCCCN2CCN(C)CC2)n1 [S18N6 D9] | 11.0%
CCCCCCCCCCCCCCCSc1nc(NCCCCCCCC)nc(NCCN2CCOCC2)n1 [S15N8 D2] | 19.3%
CCCCCCCCCSc1nc(NCCN2CCCC2)nc(SCCCCCCC)n1 [S7S9 D3] | 21.5%
CCCCCCCCCCCCCCCCSc1nc(NCCCCCCCCCCCC)nc(NCCN2CCOCC2)n1 [S16N12 D2] | 0.0%
CCCCCCCCCCCNc1nc(NCCCN(C)C)nc(SCCCCCCCCCC)n1 [S10N11 D6] | 26.5%
CCCCCCCCNc1nc(NCCN2CCOCC2)nc(SCCCCCC)n1 [S6N8 D2] | 0.3%
CCCCCCCCCCCCCCCCCCSc1nc(NCCCCCCCCCCCC)nc(NCCN(C)C)n1 [S18N12 D1] | 1.3%
CCCCCCCCCCCCCCCCCCSc1nc(NCCCCCCCCC)nc(NCCN2CCOCC2)n1 [S18N9 D2] | 3.4%

Structure (SMILES) | Absolute DNA transfection efficiency in HEK293 cells
CCCCCCCCCCCNc1nc(NCCCN2CCN(C)CC2)nc(SCCCCCCCC)n1 [S8N11 D9] | 63.6%
CCCCCCCCCCCCN(CCCCCCCCCCCC)c1nc(NCC2CCN(C)CC2)nc(SCCCCCCCCC)n1 [S9^2N12 D10] | 1.1%
CCCCCCCCNc1nc(NCCN2CCOCC2)nc(SCCCCCCCC)n1 [S8N8 D2] | 1.5%
CCCCCCCCCCCSc1nc(NCCCCCCCC)nc(NCCCN2CCOCC2)n1 [S11N8 D8] | 12.2%
CCCCCCCCCCSc1nc(NCCCCCCCCC)nc(NCCN(CC)CC)n1 [S10N9 D7] | 6.9%
CCCCCCCCCCCCCCCCSc1nc(NCCCCCCC)nc(NCCN2CCOCC2)n1 [S16N7 D2] | 16.6%
CCCCCCCCCCSc1nc(NCCCCCC)nc(NCCN2CCOCC2)n1 [S10N6 D2] | 0.5%
CCCCCCCCCCCCCCSc1nc(NCCCCCCCC)nc(NCCN2CCN(C)CC2)n1 [S14N8 D5] | 19.6%
CCCCCCCCCCCSc1nc(NCCCCCCCCC)nc(NCCN(C)C)n1 [S11N9 D1] | 12.1%
CCCCCCCCCCCCSc1nc(NCCCCCCCC)nc(NCC2CCN(C)CC2)n1 [S12N8 D10] | 16.3%
CCCCCCCCCCSc1nc(NCCCCCC)nc(NCCN2CCCC2)n1 [S10N6 D3] | 7.3%
CCCCCCCCCCCCCCCCSc1nc(NCCCCCCCCCCCC)nc(NCCN2CCCCC2)n1 [S16N12 D4] | 0.0%
CCCCCCCCCCCCCCSc1nc(NCCN2CCCCC2)nc(N(CCCCCCCCCCCC)CCCCCCCCCCCC)n1 [S14^2N12 D4] | 0.0%
CCCCCCCCCCCCCCCSc1nc(NCCCCCC)nc(NCCN(C)C)n1 [S15N6 D1] | 21.2%
CCCCCCCCCNc1nc(NCCN(C)C)nc(SCCCCCC)n1 [S6N9 D1] | 0.1%
CCCCCCCCCCCCCCCCNc1nc(NCCCN2CCOCC2)nc(SCCCCCCC)n1 [S7N16 D8] | 8.1%
CCCCCCCCCCCCCCCCCCSc1nc(NCCCCCC)nc(NCCN2CCCC2)n1 [S18N6 D3] | 22.1%
CCCCCCCCCCCCN(CCCCCCCCCCCC)c1nc(NCC2CCN(C)CC2)nc(SCCCCCCCC)n1 [S8^2N12 D10] | 0.8%
CCCCCCCCCCCCCCCCCCNc1nc(NCC2CCN(C)CC2)nc(SCCCCCCCCC)n1 [S9N18 D10] | 11.2%
CCCCCCCCCCCCCCCSc1nc(NCCCCCC)nc(NCCCN2CCOCC2)n1 [S15N6 D8] | 19.8%
CCCCCCCCCCCCCCCCSc1nc(NCCCCCCCCCCC)nc(NCCN2CCOCC2)n1 [S16N11 D2] | 9.6%
CCCCCCCCCCCCCCCCSc1nc(NCCCCCCCC)nc(NCCCN(C)C)n1 [S16N8 D6] | 11.1%
CCCCCCCCCCCCCCCCNc1nc(NCCCN(C)C)nc(SCCCCCCCCCCC)n1 [S11N16 D6] | 5.7%
CCCCCCCCCNc1nc(NCCN(C)C)nc(SCCCCCCCC)n1 [S8N9 D1] | 33.6%
CCCCCCCCCCCCCNc1nc(NCCN(C)C)nc(SCCCCCC)n1 [S6N13 D1] | 6.5%
CCCCCCCCCCCCCCCCSc1nc(NCCN2CCCCC2)nc(N(CCCCCCCCCCCC)CCCCCCCCCCCC)n1 [S16^2N12 D4] | 0.1%
